In patent US20050014675A1, “Cell migration inhibitor” (priority 2001, published 2005):
Where a name gives a salt, the structure may show the parent alone. Non-standard residues stand in square brackets, D forms with d. Residues, ends and D or L forms follow the SMILES beside them. No end group written: not given here. dTrp(2-Me) = Cc1[nH]c2ccccc2c1C[C@@H](N)C(=O)O; d2Nal = N[C@H](Cc1ccc2ccccc2c1)C(=O)O

What was measured:
Assay type in all cases: cell-based
[1] = system: human vascular smooth muscle cells; test: PDGF-induced migration of human vascular smooth muscle cells (Boyden's chamber); details: for action on the PDGF-induced migration of vascular smooth muscle cells (summary of Test 1): Test 1, summary statement; for suppressive action on PDGF-induced migration / action on PDGF-induced migration: human vascular smooth muscle cells, FIG. 4; for suppressive action on PDGF-induced migration: compound at 10 nM
Method: (§1) Human vascular smooth muscle cells were cultured in SmBM with the additive factors in a culture incubator (37° C., 5% CO2/95% air) and cells at the 5th-9th passage were used in the test. Rabbit vascular smooth muscle cells were obtained by an explant technique from the media of rabbit thoracic aorta and cultured in DMEM with 10% fetal bovine serum; cells at the 5th-7th passage were used in the test.
(§2) Cells that proliferated to confluence were detached with trypsin, washed twice with an additive factor free medium, dispersed in SmBM containing 0.1% fetal bovine serum and prepared to a cell density of 5×10^5 cells/mL. Migration of cells was assayed according to Koyama et al. method (J. Biol. Chem. (1993) 268:13301-13308) using a 48-well Boyden's chamber (Neuro probe). To be more specific, 28 μL of SmBM containing 10 ng/mL of PDGF and 0.1% FBS was placed in the lower chamber and 50 μL of a cell dispersion preliminarily incubated with each assay compound for 10 minutes was placed in the upper chamber. The upper chamber and the lower chamber were separated by a polycarbonate filter (having pores 8 μm in diameter) precoated with type I collagen (Nitta Gelatin Inc.) Since the placement of the cell dispersion, the Boyden's chamber was incubated in a culture incubator (37° C., 5% CO2/95% air) for 4 hours. The cells on the upper side of the filter were scraped off and the cells that had migrated to the lower side of the filter were fixed in methanol and stained with Diff-Quick staining solution (International Reagents Corporation). The filter had been air-dried on a glass slide and sealed with Enteran New. The cells were counted under a high-power microscope (×200) in 4 fields per well and the number of cells that had migrated was averaged to determine the migration activity.
The result of each treated group was represented by the mean±standard deviation for 3 wells. Statistical significance was estimated by one-way ANOVA, if p value was less than 5%, followed by Dunnett method to compare between vehicle-treated group and the others in the presence of a migration inducer. Values of p less than 5% were considered to be significant.

Human mesangial cells = test: PDGF-induced migration of human mesangial cells (Boyden's chamber)
Method: as §2, with “activity. […]” for “activity.”

[2] = system: rabbit vascular smooth muscle cells; test: PDGF-induced migration of rabbit vascular smooth muscle cells (Boyden's chamber); details: treatment with 10 nM, FIG. 3
Method: as §1
Cells that proliferated to confluence were detached with trypsin, washed twice with an additive factor free medium, dispersed in SmBM containing 0.1% fetal bovine serum and prepared to a cell density of 5×10^5 cells/mL. Migration of cells was assayed according to Koyama et al. method (J. Biol. Chem. (1993) 268:13301-13308) using a 48-well Boyden's chamber (Neuro probe). To be more specific, 28 μL of SmBM containing 10 ng/mL of PDGF and 0.1% FBS was placed in the lower chamber and 50 μL of a cell dispersion preliminarily incubated with each assay compound for 10 minutes was placed in the upper chamber. […] The cells were counted under a high-power microscope (×200) in 4 fields per well and the number of cells that had migrated was averaged to determine the migration activity. […]

Molecule	action on the PDGF-induced migration of vascular smooth muscle cells (summary of Test 1) [1]	suppressive action on PDGF-induced migration [1]	other results
CN1N=C2CCN(C(=O)[C@@H](COCc3ccccc3)NC(=O)C(C)(C)N)C[C@@]2(Cc2ccccc2)C1=O [CP-424,391, capromorelin]	potent inhibitory action	significant suppressive action	–
C[C@H](NC(=O)[C@@H](Cc1ccc2ccccc2c1)NC(=O)[C@@H](C)N)C(=O)N[C@@H](Cc1c[nH]c2ccccc12)C(=O)N[C@H](Cc1ccccc1)C(=O)N[C@@H](CCCCN)C(N)=O [KP-102, Pralmorelin dihydrochloride] (H-[dA][d2Nal]AW[dF]K-NH2)	potent inhibitory action	–	concentration with significant suppression of PDGF-induced migration (Human mesangial cells; FIG. 8): ≥ 0.1 nM; suppressive action on PDGF-induced migration [2]: significant suppressive action
CC(C)(N)C(=O)N[C@H](COCc1ccccc1)C(=O)N1CCC2(CC1)CN(S(C)(=O)=O)c1ccccc12 [MK-0677, ibutamorelin methanesulfonate]	potent inhibitory action	significant suppressive action	–
CNC(=O)[C@@H](Cc1ccccc1)N(C)C(=O)[C@@H](Cc1ccc2ccccc2c1)N(C)C(=O)/C=C/CC(C)(C)N [NN-703, tabimorelin]	potent inhibitory action	significant suppressive action	–
Cc1[nH]c2ccccc2c1C[C@@H](NC(=O)[C@@H](N)Cc1cnc[nH]1)C(=O)N[C@@H](C)C(=O)N[C@@H](Cc1c[nH]c2ccccc12)C(=O)N[C@H](Cc1ccccc1)C(=O)N[C@@H](CCCCN)C(N)=O [hexarelin] (H-H[dTrp(2-Me)]AW[dF]K-NH2)	potent inhibitory action	significant suppressive action	–
GH: recombinant human growth hormone (Wako Pure Chemical Industries, Ltd.)	no action	–	action on PDGF-induced migration ([1]; at 0.1 μg/mL): no action
GHRH: human-type growth-hormone releasing hormone (Peptide Institute, Inc.) (YADAIFTNSYRKVLGQLSARKLLQDIMSRQQGESNQERGARARL; ends and bridges not checked; UniProt P01286 32-75, looked up)	no action	–	action on PDGF-induced migration ([1]; at 10 nM): no action
GHRP-6	potent inhibitory action	significant suppressive action	–
ghrelin	potent inhibitory action	–	suppression of PDGF-induced migration (Human mesangial cells; FIG. 9): This action was also verified; suppressive action on PDGF-induced migration [2]: significant suppressive action
